We go through 16 compounds from ChEMBL document CHEMBL1909046, “DrugMatrix in vitro pharmacology data”.

Test [1] has as its target T1, Alpha-1A adrenergic receptor (Rattus norvegicus, UniProt P43140).
T1 sequence (P43140 whole entry): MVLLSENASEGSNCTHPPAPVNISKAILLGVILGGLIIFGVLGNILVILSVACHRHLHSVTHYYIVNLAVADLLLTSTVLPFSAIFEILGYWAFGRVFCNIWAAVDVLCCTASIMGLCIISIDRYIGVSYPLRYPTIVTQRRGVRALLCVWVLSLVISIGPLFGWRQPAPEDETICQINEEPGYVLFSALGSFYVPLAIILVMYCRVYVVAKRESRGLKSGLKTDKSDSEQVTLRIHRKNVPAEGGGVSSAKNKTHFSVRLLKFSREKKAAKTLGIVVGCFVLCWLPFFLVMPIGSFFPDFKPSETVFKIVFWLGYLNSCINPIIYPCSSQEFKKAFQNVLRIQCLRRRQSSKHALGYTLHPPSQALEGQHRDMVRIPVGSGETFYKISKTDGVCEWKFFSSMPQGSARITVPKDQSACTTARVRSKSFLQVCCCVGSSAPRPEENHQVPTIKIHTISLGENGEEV
The test is described as follows: DRUGMATRIX: Alpha-1A adrenergic receptor radioligand binding (ligand: prazosin). In kind it is cell membranes, Wistar, Submaxillary gland, Membrane. To be noted: Not Active = under 50% inhibition at 10 µM.

Test [2] concerns the target Sodium-dependent noradrenaline transporter (Homo sapiens, UniProt P23975). The test is described as follows: DRUGMATRIX: Norepinephrine Transporter radioligand binding (ligand: [125I] RTI-55). In kind it is cell membranes, MDCK, Membrane. To be noted: Not Active = under 50% inhibition at 10 µM.
Test [3] in a line: DRUGMATRIX: Calcium Channel Type L, Dihydropyridine radioligand binding (ligand: [3H] Nitrendipine). In kind it is cell membranes, Rattus norvegicus, Wistar, Cerebral cortex, Membrane. To be noted: Not Active = under 50% inhibition at 10 µM.
Test [4] concerns the target T2, Muscarinic acetylcholine receptor M4 (Homo sapiens, UniProt P08173). Also: in other assays of this panel Not Active means under 50% inhibition at 10 µM.
T2 sequence (P08173 whole entry): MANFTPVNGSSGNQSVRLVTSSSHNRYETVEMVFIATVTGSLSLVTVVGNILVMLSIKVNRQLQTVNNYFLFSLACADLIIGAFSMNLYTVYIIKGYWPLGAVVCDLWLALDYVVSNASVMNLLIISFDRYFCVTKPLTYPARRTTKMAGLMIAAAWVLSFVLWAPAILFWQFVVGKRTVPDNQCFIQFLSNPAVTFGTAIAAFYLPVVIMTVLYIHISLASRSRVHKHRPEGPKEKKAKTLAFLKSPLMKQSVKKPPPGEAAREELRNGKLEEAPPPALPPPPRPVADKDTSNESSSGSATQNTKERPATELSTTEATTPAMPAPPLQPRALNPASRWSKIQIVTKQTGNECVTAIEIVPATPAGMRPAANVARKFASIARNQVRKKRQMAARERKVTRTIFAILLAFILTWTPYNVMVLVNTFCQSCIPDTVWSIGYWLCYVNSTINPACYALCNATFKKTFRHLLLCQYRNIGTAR
The test is classed as cell membranes, CHO-K1, Membrane.

A further test deals with Nitric oxide synthase 1 (Rattus norvegicus, UniProt P29476). The test is classed as tissue-based, Cerebellum.
Nitric oxide synthase 1, sequence (P29476 whole entry): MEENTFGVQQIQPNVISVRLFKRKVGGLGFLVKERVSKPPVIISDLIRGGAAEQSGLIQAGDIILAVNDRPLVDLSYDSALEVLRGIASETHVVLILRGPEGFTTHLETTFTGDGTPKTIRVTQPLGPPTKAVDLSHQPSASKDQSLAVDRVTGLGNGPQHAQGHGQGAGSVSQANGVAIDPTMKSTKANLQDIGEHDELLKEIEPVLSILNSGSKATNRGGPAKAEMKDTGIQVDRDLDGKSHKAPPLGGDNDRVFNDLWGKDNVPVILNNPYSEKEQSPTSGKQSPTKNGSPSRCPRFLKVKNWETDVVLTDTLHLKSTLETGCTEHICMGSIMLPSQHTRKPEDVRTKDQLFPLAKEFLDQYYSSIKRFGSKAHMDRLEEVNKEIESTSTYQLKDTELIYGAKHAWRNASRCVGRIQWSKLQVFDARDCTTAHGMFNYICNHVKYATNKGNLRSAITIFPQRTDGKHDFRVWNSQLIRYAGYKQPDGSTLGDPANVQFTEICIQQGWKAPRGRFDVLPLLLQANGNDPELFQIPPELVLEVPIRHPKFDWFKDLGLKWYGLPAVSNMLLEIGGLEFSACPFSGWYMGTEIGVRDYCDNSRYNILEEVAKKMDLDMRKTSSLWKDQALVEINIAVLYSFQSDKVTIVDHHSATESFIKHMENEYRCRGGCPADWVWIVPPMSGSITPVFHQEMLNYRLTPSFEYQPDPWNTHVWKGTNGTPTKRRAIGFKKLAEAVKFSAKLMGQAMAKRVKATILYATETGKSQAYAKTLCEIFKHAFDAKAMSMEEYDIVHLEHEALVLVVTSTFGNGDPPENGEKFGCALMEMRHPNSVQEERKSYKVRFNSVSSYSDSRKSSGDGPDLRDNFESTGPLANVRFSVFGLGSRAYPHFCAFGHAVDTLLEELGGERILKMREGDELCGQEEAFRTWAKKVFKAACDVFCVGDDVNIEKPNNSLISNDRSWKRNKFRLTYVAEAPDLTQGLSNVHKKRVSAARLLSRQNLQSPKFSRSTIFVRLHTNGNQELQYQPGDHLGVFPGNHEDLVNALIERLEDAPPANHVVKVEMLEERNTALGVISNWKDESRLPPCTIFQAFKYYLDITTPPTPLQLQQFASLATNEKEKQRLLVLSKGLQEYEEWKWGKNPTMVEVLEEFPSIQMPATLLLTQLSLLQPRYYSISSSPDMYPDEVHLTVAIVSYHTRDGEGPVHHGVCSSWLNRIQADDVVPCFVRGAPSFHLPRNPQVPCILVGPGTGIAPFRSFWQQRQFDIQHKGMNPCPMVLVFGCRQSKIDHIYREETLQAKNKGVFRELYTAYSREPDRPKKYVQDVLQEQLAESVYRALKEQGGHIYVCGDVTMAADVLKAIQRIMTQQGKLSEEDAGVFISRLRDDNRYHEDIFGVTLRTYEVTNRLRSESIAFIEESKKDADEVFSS
Another test addresses Adenosine receptor A2a (Homo sapiens, UniProt P29274). The test is described as follows: DRUGMATRIX: Adenosine A2A radioligand binding (ligand: […]). To be noted: hek293; Not Active = under 50% inhibition at 10 µM. The test is classed as cell membranes, Membrane.

Adenosine receptor A2a, sequence (P29274 whole entry): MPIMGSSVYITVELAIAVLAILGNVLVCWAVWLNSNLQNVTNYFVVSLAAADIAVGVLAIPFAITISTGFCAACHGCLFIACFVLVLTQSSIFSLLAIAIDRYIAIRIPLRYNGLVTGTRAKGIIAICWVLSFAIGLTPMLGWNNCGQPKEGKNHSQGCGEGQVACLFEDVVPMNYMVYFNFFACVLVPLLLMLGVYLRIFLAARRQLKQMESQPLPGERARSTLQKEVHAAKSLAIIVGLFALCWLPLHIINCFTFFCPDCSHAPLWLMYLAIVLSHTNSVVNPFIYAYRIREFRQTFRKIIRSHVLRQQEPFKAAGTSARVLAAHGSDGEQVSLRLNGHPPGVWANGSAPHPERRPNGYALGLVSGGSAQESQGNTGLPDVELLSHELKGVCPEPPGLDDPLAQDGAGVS
Sodium-dependent noradrenaline transporter, sequence (P23975 whole entry): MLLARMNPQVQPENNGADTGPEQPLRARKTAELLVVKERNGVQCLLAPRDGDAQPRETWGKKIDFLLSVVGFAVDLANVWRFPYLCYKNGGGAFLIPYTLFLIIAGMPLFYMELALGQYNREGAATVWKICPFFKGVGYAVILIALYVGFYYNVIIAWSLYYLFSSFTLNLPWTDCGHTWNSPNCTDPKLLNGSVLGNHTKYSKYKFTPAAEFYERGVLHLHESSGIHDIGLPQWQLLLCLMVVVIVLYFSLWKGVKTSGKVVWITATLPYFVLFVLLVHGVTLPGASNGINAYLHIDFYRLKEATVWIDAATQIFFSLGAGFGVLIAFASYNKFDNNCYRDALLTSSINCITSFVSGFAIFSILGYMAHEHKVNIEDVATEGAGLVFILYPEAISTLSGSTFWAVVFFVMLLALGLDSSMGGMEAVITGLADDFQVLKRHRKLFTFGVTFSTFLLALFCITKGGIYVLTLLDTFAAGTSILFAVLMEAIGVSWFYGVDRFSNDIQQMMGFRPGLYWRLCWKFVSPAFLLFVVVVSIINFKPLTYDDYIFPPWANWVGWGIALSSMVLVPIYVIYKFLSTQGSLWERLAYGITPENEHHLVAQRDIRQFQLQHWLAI

The IC50 is the midpoint of a concentration-inhibition curve. What is called Ki is the dissociation constant of the complex between target and ligand, obtained from inhibition or displacement. `Cc1ccccc1N1C(=O)c2cc(S(N)(=O)=O)c(Cl)cc2NC1C` (stereo not drawn) [METOLAZONE]: the IC50 entry (in test [1]; in test [2] (mdck); in test [3]; in test [4] (cho-k1); against Nitric oxide synthase 1; at Adenosine receptor A2a) was “Not Active” each time. In addition, the inhibitory constant (Ki) result in test [3] is listed as “Not Active”.

Consider `COCCc1ccc(OCC(O)CNC(C)C)cc1` (stereo not drawn) [METOPROLOL], for which the 50% inhibitory concentration (IC50) result (in test [1]; in test [2] (mdck); in test [3]; in test [4] (cho-k1); against Nitric oxide synthase 1; at Adenosine receptor A2a) was “Not Active” throughout. The inhibition constant Ki entry in test [3] is listed as “Not Active”.

With `CCn1cc(C(=O)O)c(=O)c2cc(F)c(N3CCNCC3)cc21` [NORFLOXACIN], the IC50 result (in test [1]; in test [2] (mdck); in test [3]; in test [4] (cho-k1); on Nitric oxide synthase 1; at Adenosine receptor A2a) was “Not Active” throughout. Also, the Ki entry in test [3] is recorded as “Not Active”.

Consider `NC1=NC(=O)C(c2ccccc2)O1` (stereo not drawn) [PEMOLINE], for which the IC50 result (in test [1]; in test [2] (mdck); in test [3]; in test [4] (cho-k1); against Nitric oxide synthase 1; at Adenosine receptor A2a) was “Not Active” each time. Besides, the inhibition constant Ki result in test [3] is given as “Not Active”.

As to `Nc1nc2c(ncn2CCC(CO)CO)c(=O)[nH]1` [PENCICLOVIR], the half-maximal inhibitory concentration (IC50) result (in test [1]; in test [2] (mdck); in test [3]; in test [4] (cho-k1); against Nitric oxide synthase 1; on Adenosine receptor A2a) was “Not Active” throughout. The Ki entry in test [3] is given as “Not Active”.

As to `C=C(C)C1(O)OC(=O)C=C1OC` (stereo not drawn) [PENICILLIC ACID], the IC50 result (in test [1]; in test [2] (mdck); in test [3]; in test [4] (cho-k1); against Nitric oxide synthase 1; at Adenosine receptor A2a) was “Not Active” each time. For the same compound, the inhibition constant Ki entry in test [3] was “Not Active”.

For `CC1(C)S[C@@H]2[C@H](NC(=O)Cc3ccccc3)C(=O)N2[C@H]1C(=O)O` [PENICILLIN G], the concentration for half-maximal inhibition (IC50) entry (in test [1]; in test [2] (mdck); in test [3]; in test [4] (cho-k1); at Nitric oxide synthase 1; at Adenosine receptor A2a) was “Not Active” in each case. Further, the Ki result in test [3] is reported as “Not Active”.

On to `CCCN1C[C@H](CSC)C[C@@H]2c3cccc4[nH]cc(c34)C[C@H]21` [PERGOLIDE], for which the half-inhibitory concentration (IC50) in test [1] (read-out: IC50) is 1.93 µM; in test [2] (mdck), “Not Active”; in test [3], “Not Active”; in test [4] (cho-k1), “Not Active”; at Nitric oxide synthase 1, “Not Active”; on Adenosine receptor A2a, “Not Active”. The values for the inhibition constant Ki in test [1] (read-out: Ki) and in test [3] were 0.781 µM and “Not Active”, respectively.

For `C1CCC(C(CC2CCCCN2)C2CCCCC2)CC1` (stereo not drawn) [PERHEXILINE], the half-maximal inhibitory concentration (IC50) result in test [1] was “Not Active”; in test [2] (read-out: IC50), 3.29 µM; in test [3], “Not Active”; in test [4] (read-out: IC50), 3.59 µM; against Nitric oxide synthase 1, “Not Active”; at Adenosine receptor A2a, “Not Active”. In addition, the inhibition constant (Ki) is 3.27 µM in test [2] (read-out: Ki), “Not Active” in test [3] and 0.501 µM in test [4] (read-out: Ki).

On to `CCOc1ccc(NC(C)=O)cc1` [PHENACETIN], for which the concentration for half-maximal inhibition (IC50) entry (in test [1]; in test [2] (mdck); in test [3]; in test [4] (cho-k1); at Nitric oxide synthase 1; at Adenosine receptor A2a) was “Not Active” in each case. Besides, the Ki result in test [3] is “Not Active”.

`CNNCc1ccc(C(=O)NC(C)C)cc1` [PROCARBAZINE]: the IC50 result (in test [1]; in test [2] (mdck); in test [3]; in test [4] (cho-k1); at Nitric oxide synthase 1; at Adenosine receptor A2a) was “Not Active” each time. The inhibitory constant (Ki) result in test [3] is listed as “Not Active”.

In the case of `CN(C)CCCN1c2ccccc2Sc2ccccc21` [PROMAZINE], the IC50 in test [1] (read-out: IC50) is 0.00924 µM; in test [2] (read-out: IC50), 0.013 µM; in test [3], “Not Active”; in test [4] (read-out: IC50), 0.299 µM; on Nitric oxide synthase 1, “Not Active”; on Adenosine receptor A2a, “Not Active”. Also, the Ki in test [1] (read-out: Ki) is 0.00374 µM; in test [2] (read-out: Ki) it was 0.013 µM; in test [3], “Not Active”; in test [4] (read-out: Ki), 0.042 µM.

Consider `CC(O)CO` (stereo not drawn) [PROPYLENE GLYCOL], for which the concentration for half-maximal inhibition (IC50) entry (in test [1]; in test [2] (mdck); in test [3]; in test [4] (cho-k1); on Nitric oxide synthase 1; on Adenosine receptor A2a) was “Not Active” each time. Also, the inhibitory constant (Ki) entry in test [3] is “Not Active”.

Turning to CADMIUM ACETATE, the half-inhibitory concentration (IC50) entry (in test [1]; in test [2] (mdck); in test [3]; in test [4] (cho-k1); against Nitric oxide synthase 1; on Adenosine receptor A2a) was “Not Active” throughout. Also, the Ki entry (in test [1]; in test [2] (mdck); in test [3]; in test [4] (cho-k1); at Nitric oxide synthase 1; at Adenosine receptor A2a) was “Not Active” in each case.

For the compound LEAD (II) ACETATE, the 50% inhibitory concentration (IC50) result (in test [1]; in test [2] (mdck); in test [3]; in test [4] (cho-k1); against Nitric oxide synthase 1; on Adenosine receptor A2a) was “Not Active” throughout. The inhibitory constant (Ki) result (in test [1]; in test [2] (mdck); in test [3]; in test [4] (cho-k1); at Nitric oxide synthase 1; at Adenosine receptor A2a) was “Not Active” each time.

For the compound LIPOPOLYSACCHARIDE E. COLI O55:B5, the half-inhibitory concentration (IC50) entry (in test [1]; in test [2] (mdck); in test [3]; in test [4] (cho-k1); against Nitric oxide synthase 1; at Adenosine receptor A2a) was “Not Active” in each case. For the same compound, the Ki entry (in test [1]; in test [2] (mdck); in test [3]; in test [4] (cho-k1); on Nitric oxide synthase 1; on Adenosine receptor A2a) was “Not Active” in each case.
